Data published in patent US9718781B2, “Methods and compounds for treating proliferative disorders and viral infections” (University College Dublin, National University of Ireland, …, priority 2012, dated 2017).
Several values for one entry are separate records, joined by “and”; a condition that tells them apart may be missing. Identical values can stand only once. Like-named read-outs stand apart in the source and are kept apart here.

What was measured:
human platelets [1] = assay: U46619-induced human platelet aggregation ex vivo (platelet rich plasma); type: cell-based; conditions: human platelets ex vivo, Table 3, read-out: IC50 data for inhibition of U46619-induced platelet aggregation
Text: A modification of the turbidimetric method originally developed by Born & Cross (Born, G. V. and Cross, M. J., The Aggregation of Blood Platelets, J Physiol, 1963, 168:178-95) is used. The principle is based on the diffraction of the light by particles. When a light beam passes through a suspension of particles, it is diffracted, depending on the number and the size of the particles in suspension.
In the Born & Cross method, a light beam passes through a platelet suspension and the quantity of light is measured by a detector placed after the sample. Upon platelet aggregation, the size of platelet aggregates will increase while the total number of free platelets will decrease. Consequently, less light will be diffracted and the detector will record an increase in light intensity. The aggregometer has been developed based on these concepts. Variations in light transmission recorded by this device reflects the platelet physiology. When an agonist of platelet aggregation is added to a platelet suspension, platelets undergo activation and shape change. This step is characterized by an increase in platelet's apparent volume and thus a decrease of transmitted light. Subsequent platelet aggregation gradually forms aggregates of increasing size. Transmitted light slightly increases until a plateau is reached. The aggregation of platelet can be confirmed after the experiment by visual direct inspection of the test tube.
Preparation of platelet suspension is achieved by blood centrifugation at 160 g for 10 minutes. The PRP is re-centrifuged at 160 g for 10 min to remove contaminating red and white blood cells. The supernatant which is collected contains the platelets rich plasma (PRP). The remaining blood is subsequently centrifuged at 900 g for 15 min in order to retrieve plasma (platelets poor plasma, PPP). PRP is diluted with PPP to reach a final concentration of 150×10^3 […] PRP is kept warmed at 37° C. in the aggregometer and the adequate dilution of drug to test is introduced in the sample. Platelet aggregation is induced after 10 minutes incubation. Light transmission (T) is measured throughout the experiment, which is ended 8 minutes after induction of aggregation. Maximal light transmission (Tmax) is determined in the sample without drugs. Minimal light transmission (Tmin) is measured in PRP without inducer.
The effect of NTP4 and the previously identified lead TP antagonist, TP20, on U46619-mediated platelet aggregation in side-by-side comparisons was performed in platelet rich plasma (PRP) using the PAP-8E platelet aggregometer.
FIG. 4A-4C show the effect of TP20 & NTP4 on U46619-mediated platelet aggregation. PRP was prepared from blood taken from healthy volunteers into syringes containing 3.8% sodium citrate and 10 μM indomethacin such that the final ratio of anticoagulant to blood was 1:9. Aliquots of PRP (300 μl) were pre-incubated for 10 min with the TP antagonists, TP20 and NTP4, where 2-fold serial dilutions from 1 μM were prepared for each, prior to stimulating platelets with 1 μM U46619, incubated at 37° C., with stirring. FIG. 4A and FIG. 4B: Representative dose-response platelet aggregation profiles for TP20 (FIG. 4A) and NTP4 (FIG. 4B), where data is presented as Percentage Aggregation, as determined by changes in light transmission using the PAP-8E Platelet Aggregation Profiler as a function of time. FIG. 4C: The dose-response curves for platelet aggregation are presented as the mean (±S.E.M.) maximum Percentage Aggregation as a function of the log of the TP antagonist concentration. Data presented is representative of ≧6 independent experiments.

TPα = target: T1, TPα (Homo sapiens, UniProt P21731); assay: U46619-induced [Ca2+]i mobilization in HEK.TPα cells; type: cell-based; conditions: for IC50: HEK.TPα cells, 1 μM U46619, Table 2, read-out: IC50 data for U46619-mediated [Ca2+]i mobilization, TPα; for TPα:TPβ Selectivity Ratio: IC50 TPα/IC50 TPβ
T1 construct: expressed in transfected cells
T1 sequence (P21731 1-343): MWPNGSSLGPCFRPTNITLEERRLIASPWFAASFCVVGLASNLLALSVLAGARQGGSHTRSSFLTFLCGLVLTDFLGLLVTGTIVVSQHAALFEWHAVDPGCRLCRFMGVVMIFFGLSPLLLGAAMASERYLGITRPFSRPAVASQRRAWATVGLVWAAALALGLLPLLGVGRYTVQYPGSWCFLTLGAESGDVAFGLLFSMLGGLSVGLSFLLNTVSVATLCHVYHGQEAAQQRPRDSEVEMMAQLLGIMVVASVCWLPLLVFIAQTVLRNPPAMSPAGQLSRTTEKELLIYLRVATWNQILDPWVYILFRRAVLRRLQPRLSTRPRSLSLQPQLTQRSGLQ
Outline: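 HEK293 cells loaded with 3 μM Fluo-4 (1 h, 25° C.) in Krebs-HEPES pH 7.4, then pre-incubated with compound for 10 min. Fluorescence at 520 nm tracked after injection of 1 μM U46619. Signal calibrated by Fmax (2% Triton X100) and Fmin (1 mM EGTA).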

TPβ = target: T2, TPβ (Homo sapiens, UniProt P21731); assay: U46619-induced [Ca2+]i mobilization in HEK.TPβ cells; type: cell-based; conditions: HEK.TPβ cells; 1 μM U46619; Table 2; read-out: IC50 data for U46619-mediated [Ca2+]i mobilization, TPβ
T2 construct: expressed in transfected cells
T2 sequence (P21731 1-407 isoform P21731-2): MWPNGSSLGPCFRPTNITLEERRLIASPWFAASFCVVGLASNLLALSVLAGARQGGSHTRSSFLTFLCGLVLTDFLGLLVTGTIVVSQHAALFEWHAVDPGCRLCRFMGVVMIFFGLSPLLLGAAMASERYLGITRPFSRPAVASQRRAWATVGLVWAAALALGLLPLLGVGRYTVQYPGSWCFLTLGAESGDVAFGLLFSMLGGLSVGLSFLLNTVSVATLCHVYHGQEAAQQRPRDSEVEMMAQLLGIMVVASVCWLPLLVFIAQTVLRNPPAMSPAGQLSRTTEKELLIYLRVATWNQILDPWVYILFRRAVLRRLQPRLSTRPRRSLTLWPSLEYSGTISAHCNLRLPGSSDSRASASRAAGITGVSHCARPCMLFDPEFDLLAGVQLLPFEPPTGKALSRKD
Outline: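 Fluo-4-loaded (3 μM, 1 h, 25° C.) HEK293 TPβ cells in KREBs-HEPES pH 7.4, pre-incubated 10 min with test compound, then stimulated with 1 μM U46619. Fluorescence at 520 nm followed for 75 s, calibrated by Fmax (2% Triton X100) and Fmin (1 mM EGTA).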

[2] = test system: A/Puerto Rico/8/1934 (H1N1) influenza A virus; type: in vivo, BALB/c mice
human platelets [3] = assay: ADP-induced platelet aggregation of human platelets ex vivo; type: cell-based
Text: (§1) The method of assessing platelet aggregation also allows evaluation of the effect of the compounds of the invention on platelet aggregation upon stimulation by other agonists, e.g., adenosine diphosphate (ADP) and thrombin.

human platelets [4] = assay: Thrombin-induced platelet aggregation of human platelets ex vivo; type: cell-based
Text: as §1

[5] = lung, Day 4, Tamiflu 10 mg/kg, TP20 0.36 mg/kg
[6] = lung, Day 4, number of animals of 3

COc1cccc(Oc2ccc([N+](=O)[O-])cc2S(=O)(=O)NC(=O)NC(C)(C)C)c1 [Compound 9h, reference compound]
IC50 (human platelets [1]; Homo sapiens, Platelet): 513 nM | IC50 (TPα): 612 nM | TPα:TPβ Selectivity Ratio (TPα): 2.3 | IC50 (TPβ): 270 nM

O=C(O)CCC/C=C\CC1C2CCC(O2)C1CNNC(=O)Nc1ccccc1 (stereo not shown) [SQ29,548, reference compound]
IC50 (human platelets [1]; Homo sapiens, Platelet): 8.33 nM

CCOC(=O)C1=C[C@@H](OC(CC)CC)[C@H](NC(C)=O)[C@@H](N)C1 [Tamiflu]
survival over the study ([2]; Tamiflu 10 mg/kg, TP20 360 μg/kg, 14 days): survived the full duration | Alveolar Acute Inflammation, number of animals with the finding ([2]; lung, Day 4, 3 animals): (1) | Bronchiolar Erosion, number of animals with the finding ([2]; lung, Day 4, 3 animals): (3) | Bronchiolar Exudate, number of animals with the finding ([2]; lung, Day 4, 3 animals): (3) | Bronchiolar acute Inflammation, number of animals with the finding ([2]; lung, Day 4, 3 animals): (3) | Vascular Necrosis, number of animals with the finding ([2]; lung, Day 4, 3 animals): (0) | Extent of Perivascular Edema (Mean ± S.E.M.), Per Animal [2, 5]: 21.2 ± 1.71 (52) arbitrary units and 20.7 ± 1.21 (66) arbitrary units and 19.3 ± 1.24 (77) arbitrary units | Extent of Perivascular Edema (Mean ± S.E.M.), Per Treatment Group [2, 5]: 20.6 ± 0.90 arbitrary units | reduction in the perivascular edema compared to vehicle [2, 5]: does not reduce the extent of perivascular edema | Alveolar Acute Inflammation, Minimal [2, 6]: 1 | Bronchiolar Erosion, Mild [2, 6]: 2 | Bronchiolar Erosion, Minimal [2, 6]: 0 | Bronchiolar Erosion, Moderate [2, 6]: 1 | Bronchiolar Exudate, Mild [2, 6]: 2 | Bronchiolar Exudate, Minimal [2, 6]: 1 | Bronchiolar Exudate, Moderate [2, 6]: 0 | Bronchiolar acute Inflammation, Mild [2, 6]: 3 | Bronchiolar acute Inflammation, Minimal [2, 6]: 0 | Perivascular Edema, Mild [2, 6]: 1 | Perivascular Edema, Minimal [2, 6]: 1 | Day of Minimum Body Weight Recorded, Mean (Mean Day to Recovery) ([2]; mouse, in vivo): 8.4 | Day of Minimum Body Weight Recorded, per animal ([2]; mouse, in vivo): 9 (7×) and 7 (3×) | Perivascular Edema, number of animals with the finding ([2]; mouse, in vivo): (2) | Weight @ Day 0 ([2]; n = 10/group): 17.56 ± 0.18 | Weight @ Day 14 ([2]; n = 10/group): 17.4 ± 0.32

CC(C)(C)NC(=O)NS(=O)(=O)c1cc([N+](=O)[O-])ccc1Oc1cccc(-c2ccc(C(F)(F)F)cc2)c1 [XII]
effect on ADP-induced platelet aggregation (human platelets [3]): did not affect | IC50 (human platelets [1]; Homo sapiens, Platelet): 129 nM | IC50 (TPα): 89.8 nM | TPα:TPβ Selectivity Ratio (TPα): 1 | IC50 (TPβ): 86 nM | effect on thrombin-induced platelet aggregation (human platelets [4]): did not affect

Cc1ccc(-c2cccc(Oc3ccc([N+](=O)[O-])cc3S(=O)(=O)NC(=O)NC(C)(C)C)c2)cc1 [XLI]
effect on ADP-induced platelet aggregation (human platelets [3]): did not affect | IC50 (human platelets [1]; Homo sapiens, Platelet): 230 nM | IC50 (TPα): 106 nM | TPα:TPβ Selectivity Ratio (TPα): 6.4 | IC50 (TPβ): 16.5 nM | effect on thrombin-induced platelet aggregation (human platelets [4]): did not affect

COC(=O)c1ccc(-c2cccc(Oc3ccc([N+](=O)[O-])cc3S(=O)(=O)NC(=O)NC(C)(C)C)c2)cc1 [XLVI]
effect on ADP-induced platelet aggregation (human platelets [3]): did not affect | IC50 (human platelets [1]; Homo sapiens, Platelet): 4.12 nM | IC50 (TPα): 114 nM | TPα:TPβ Selectivity Ratio (TPα): 3 | IC50 (TPβ): 36.5 nM | effect on thrombin-induced platelet aggregation (human platelets [4]): did not affect

CC(=O)c1ccc(-c2cccc(Oc3ccc([N+](=O)[O-])cc3S(=O)(=O)NC(=O)NC(C)(C)C)c2)cc1 [XLV]
effect on ADP-induced platelet aggregation (human platelets [3]): did not affect | IC50 (human platelets [1]; Homo sapiens, Platelet): 159 nM | IC50 (TPα): 186 nM | TPα:TPβ Selectivity Ratio (TPα): 5.5 | IC50 (TPβ): 33.7 nM | effect on thrombin-induced platelet aggregation (human platelets [4]): did not affect

N-(tert-butylcarbamoyl)-2-(3-methoxyphenoxy)-5-nitrobenzenesulfonamide [Compound 9ag, reference compound]
IC50 (human platelets [1]): 985 nM | IC50 (TPα): 1750 nM | TPα:TPβ Selectivity Ratio (TPα): 4.5 | IC50 (TPβ): 379 nM
